Measured values: US8431563B2 (priority 2010, dated 2013)
Read-outs that look alike come from different tables or passages of the source.

Tests used:
[1] = molecular target: T1, GKRP (Glucokinase Regulatory Protein) with human His-hepatic GK (Homo sapiens, UniProt Q14397); experiment: biochemical
T1 sequence (Q14397 1-625): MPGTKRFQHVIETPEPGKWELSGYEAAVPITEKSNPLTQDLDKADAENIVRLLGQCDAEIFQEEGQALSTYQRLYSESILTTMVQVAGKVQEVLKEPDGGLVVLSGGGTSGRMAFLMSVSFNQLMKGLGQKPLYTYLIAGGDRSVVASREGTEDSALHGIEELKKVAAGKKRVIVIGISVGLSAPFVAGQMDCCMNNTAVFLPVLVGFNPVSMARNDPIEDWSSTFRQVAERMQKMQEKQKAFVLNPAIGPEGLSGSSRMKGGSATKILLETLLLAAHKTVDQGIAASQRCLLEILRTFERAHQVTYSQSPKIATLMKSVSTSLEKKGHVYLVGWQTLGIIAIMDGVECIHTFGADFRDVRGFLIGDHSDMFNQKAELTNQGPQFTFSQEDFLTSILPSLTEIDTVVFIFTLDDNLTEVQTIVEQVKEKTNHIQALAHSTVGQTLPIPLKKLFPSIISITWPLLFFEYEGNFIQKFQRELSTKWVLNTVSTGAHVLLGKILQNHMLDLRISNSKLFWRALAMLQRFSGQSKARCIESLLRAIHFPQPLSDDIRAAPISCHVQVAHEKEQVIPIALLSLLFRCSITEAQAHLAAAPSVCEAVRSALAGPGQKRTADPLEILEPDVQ
Method: GKRP LC MS/MS-2 Biochemical Assay
This assay is used to directly measure the formation of ^13C-glucose-6-phosphate from ^13C-glucose by LC MS/MS. Begin by preparing the following solutions: Compound Buffer (CB): 50 mM Tris, pH 7.5/4 mM MgCl2/6% DMSO/fresh 10 mM DTT from 1M frozen stock. Enzyme Buffer (EB): 50 mM Tris, pH 7.5/4 mM MgCl2/6% DMSO/fresh 0.1% BSA/fresh 0.01% Brij-35 (10% BSA and 1% Brij-35 stock). GK (Glucokinase) Working Stock (5×): Dilute human His-hepatic GK to 30 nM in EB buffer. […] After 30 minutes add 10 μl of GK Working Stock (5×). Re-seal the plate and incubate for another 30 minutes at room temperature while mixing. After the second 30 minutes, stop the reaction by the addition of 50 μl of 100% acetonitrile, seal, and mix for 5-10 minutes. Run 10 μl of this sample through the LC MS/MS (API 3200, Applied Biosystems, Carlsbad, Calif.).

[2] = molecular target: T2, interaction between glucokinase (GK) and glucokinase regulatory protein (GKRP) (Homo sapiens, UniProt Q14397); experiment: biochemical; type: binding
T2 sequence (Q14397 1-625): T1 sequence (Q14397 1-625)
Method: GK-GKRP Binding Assay Protocol
This assay is used to directly measure the interaction between glucokinase (GK) and glucokinase regulatory protein (GKRP). Begin by preparing the following solutions. Assay Buffer: 20 mM Tris, pH 7.5/0.05% BSA/1 mM DTT/1 μM sorbitol-6-phosphate. […] Combine the following reagents in a white 96-well half area plate. Pipette 14 μl of the diluted avi-tagged GKRP into each well. Add 1 μl of compound to be tested and incubate at room temperature for 20 minutes. After 20 minutes, add 5 μl of assay buffer containing 6 nM GK-fluorescein. […] Incubate in a dark room for 2 hours at room temperature. After 2 hours read the plate using an Envision plate reader (Perkin Elmer, Waltham Mass.).

[3] = 13C-glucose-6-phosphate formation, 280 nM GKRP (10×), 30 nM GK (5×), read-out: GK-GKRP EC50 (LC MS/MS-2)
[4] = avi-tagged GKRP, GK-fluorescein, AlphaScreen beads, read-out: GK-GKRP IC50 (Binding)
[5] = GK-GKRP EC50 (LC MS/MS-2), 13C-glucose-6-phosphate formation, 280 nM GKRP (10×), 30 nM GK (5×)

SMILES | EC50 [1, 3] | IC50 [2, 4] | other results
CCC1COCCN1C[C@H]1CN(S(=O)(=O)c2cccs2)CCN1c1ccc(C(C)(O)C(F)(F)F)cc1 (mixture of isomers) [Example 143, 2-(4-((2S)-2-((3-ethyl-4-morpholinyl)methyl)-4-(2-thiophenylsulfonyl)-1-piperazinyl)phenyl)-1,1,1-trifluoro-2-propanol] | 36 nM | 80 nM | 
CC(O)(c1ccc(N2CCN(S(=O)(=O)c3cccs3)C[C@@H]2CN2CCC(=O)CC2)cc1)C(F)(F)F (mixture of isomers) [Example 144, 1-(((2S)-4-(2-thiophenylsulfonyl)-1-(4-(2,2,2-trifluoro-1-hydroxy-1-methylethyl)phenyl)-2-piperazinyl)methyl)-4-piperidinone] | 831 nM | 564 nM | 
CC(O)(c1ccc(N2CCN(S(=O)(=O)c3cccs3)C[C@@H]2CN2CCC[C@H](O)C2)cc1)C(F)(F)F (mixture of isomers) [Example 145, (3S)-1-(((2S)-4-(2-thiophenylsulfonyl)-1-(4-(2,2,2-trifluoro-1-hydroxy-1-methylethyl)phenyl)-2-piperazinyl)methyl)-3-piperidinol] | 880 nM | 628 nM | 
CC1(C)C(=O)NCCN1C[C@H]1CN(S(=O)(=O)c2cccs2)CCN1c1ccc(C(C)(O)C(F)(F)F)cc1 (mixture of isomers) [Example 180, 3,3-dimethyl-4-(((2S)-4-(2-thiophenylsulfonyl)-1-(4-(2,2,2-trifluoro-1-hydroxy-1-methylethyl)phenyl)-2-piperazinyl)methyl)-2-piperazinone] | 51 nM | 22 nM | 
C[C@H]1C(=O)NCCN1C[C@H]1CN(S(=O)(=O)c2cccs2)CCN1c1ccc(C(C)(O)C(F)(F)F)cc1 (mixture of isomers) [Example 182, (3S)-3-methyl-4-(((2S)-4-(2-thiophenylsulfonyl)-1-(4-(2,2,2-trifluoro-1-hydroxy-1-methylethyl)phenyl)-2-piperazinyl)methyl)-2-piperazinone] | 69 nM | 46 nM | 
CC1CNC(=O)CN1C[C@H]1CN(S(=O)(=O)c2cccs2)CCN1c1ccc(C(C)(O)C(F)(F)F)cc1 (mixture of isomers) [Example 183, 5-methyl-4-(((2S)-4-(2-thiophenylsulfonyl)-1-(4-(2,2,2-trifluoro-1-hydroxy-1-methylethyl)phenyl)-2-piperazinyl)methyl)-2-piperazinone] | 287 nM | 171 nM | 
CC(O)(c1ccc(N2CCN(S(=O)(=O)c3cccs3)C[C@@H]2CSc2ccccc2)cc1)C(F)(F)F (mixture of isomers) [Example 186, 1,1,1-trifluoro-2-(4-((2R)-2-((phenylsulfanyl)methyl)-4-(2-thiophenylsulfonyl)-1-piperazinyl)phenyl)-2-propanol] |  |  | EC50 ([1]; read-out: GK-GKRP EC50 (LC MS/MS-2)): 24 nM; IC50 ([2]; read-out: GK-GKRP IC50 (Binding)): 14 nM
CC(O)(c1ccc(N2CCN(S(=O)(=O)c3cccs3)C[C@@H]2CSc2cccc(F)c2)cc1)C(F)(F)F (mixture of isomers) [Example 188, 1,1,1-trifluoro-2-(4-((2R)-2-(((3-fluorophenyl)sulfanyl)methyl)-4-(2-thiophenylsulfonyl)-1-piperazinyl)phenyl)-2-propanol] | 43 nM | 112 nM | 
CC(O)(c1ccc(N2CCN(S(=O)(=O)c3cccs3)C[C@@H]2CSc2ccc(F)cc2)cc1)C(F)(F)F (mixture of isomers) [Example 190, 1,1,1-trifluoro-2-(4-((2R)-2-(((4-fluorophenyl)sulfanyl)methyl)-4-(2-thiophenylsulfonyl)-1-piperazinyl)phenyl)-2-propanol] | 15 nM | 30 nM | 
CC(O)(c1ccc(N2CCN(S(=O)(=O)c3cccs3)C[C@@H]2CNS(=O)(=O)c2ccccc2)cc1)C(F)(F)F (mixture of isomers) [Example 193, N-(((2S)-4-(2-thiophenylsulfonyl)-1-(4-(2,2,2-trifluoro-1-hydroxy-1-methylethyl)phenyl)-2-piperazinyl)methyl)benzenesulfonamide] |  | 284 nM | EC50 [1, 5]: 374 nM
CC(C)N(C[C@H]1CN(S(=O)(=O)c2cccs2)CCN1c1ccc(C(C)(O)C(F)(F)F)cc1)C(C)C (mixture of isomers) [Example 194, 2-(4-((2S)-2-((bis(1-methylethyl)amino)methyl)-4-(2-thiophenylsulfonyl)-1-piperazinyl)phenyl)-1,1,1-trifluoro-2-propanol] |  | 205 nM | EC50 [1, 5]: 179 nM
CC(=O)N(C[C@H]1CN(S(=O)(=O)c2cccs2)CCN1c1ccc(C(C)(O)C(F)(F)F)cc1)C(C)C (mixture of isomers) [Example 196, N-(1-methylethyl)-N-(((2S)-4-(2-thiophenylsulfonyl)-1-(4-(2,2,2-trifluoro-1-hydroxy-1-methylethyl)phenyl)-2-piperazinyl)methyl)acetamide] | 391 nM | 466 nM | 
CC(C)N(C[C@H]1CN(S(=O)(=O)c2cccs2)CCN1c1ccc(C(C)(O)C(F)(F)F)cc1)S(=O)(=O)c1ccccc1 (mixture of isomers) [Example 197, N-(1-methylethyl)-N-(((2R)-4-(2-thiophenylsulfonyl)-1-(4-(2,2,2-trifluoro-1-hydroxy-1-methylethyl)phenyl)-2-piperazinyl)methyl)benzenesulfonamide] | 80 nM | 215 nM | 
CC(C)N(C[C@H]1CN(S(=O)(=O)c2cccs2)CCN1c1ccc(C(C)(O)C(F)(F)F)cc1)S(=O)(=O)c1cccnc1 (mixture of isomers) [Example 198, N-(1-methylethyl)-N-(((2R)-4-(2-thiophenylsulfonyl)-1-(4-(2,2,2-trifluoro-1-hydroxy-1-methylethyl)phenyl)-2-piperazinyl)methyl)-3-pyridinesulfonamide] | 177 nM | 108 nM | 
CC(O)(c1ccc(N2CCN(S(=O)(=O)c3cccs3)C[C@@H]2CN(C2CC2)S(C)(=O)=O)cc1)C(F)(F)F (mixture of isomers) [Example 200, N-cyclopropyl-N-(((2R)-4-(2-thiophenylsulfonyl)-1-(4-(2,2,2-trifluoro-1-hydroxy-1-methylethyl)phenyl)-2-piperazinyl)methyl)methanesulfonamide] | 39 nM | 26 nM | 
CC(O)(c1ccc(N2CCN(S(=O)(=O)c3cccs3)C[C@@H]2CNc2ccccc2)cc1)C(F)(F)F (mixture of isomers) [Example 203, 1,1,1-trifluoro-2-(4-((2S)-2-((phenylamino)methyl)-4-(2-thiophenylsulfonyl)-1-piperazinyl)phenyl)-2-propanol] |  |  | EC50 ([1]; GK-GKRP EC50 (LC MS/MS-2)): 146 nM; IC50 ([2]; GK-GKRP IC50 (Binding)): 278 nM
CC(O)(c1ccc(N2CCN(S(=O)(=O)c3cccs3)C[C@@H]2CN(c2ccccc2)S(C)(=O)=O)cc1)C(F)(F)F (mixture of isomers) [Example 204, N-phenyl-N-(((2R)-4-(2-thiophenylsulfonyl)-1-(4-(2,2,2-trifluoro-1-hydroxy-1-methylethyl)phenyl)-2-piperazinyl)methyl)methanesulfonamide] | 32 nM | 4 nM | 
CC(O)(c1ccc(N2CCN(S(=O)(=O)c3cccs3)C[C@@H]2CN(C2COC2)C2COC2)cc1)C(F)(F)F (mixture of isomers) [Example 205, 2-(4-((2S)-2-((di-3-oxetanylamino)methyl)-4-(2-thiophenylsulfonyl)-1-piperazinyl)phenyl)-1,1,1-trifluoro-2-propanol] | 480 nM | 435 nM | 
